Experimental data from ChEMBL document CHEMBL1909046, “DrugMatrix in vitro pharmacology data”.

Experiments:
[1] = target: T1, Cholecystokinin receptor type A (Homo sapiens, UniProt P32238); type: cell membranes, Membrane; conditions: 1321-n1; also: in other assays of this panel Not Active means under 50% inhibition at 10 µM
T1 sequence (P32238 whole entry): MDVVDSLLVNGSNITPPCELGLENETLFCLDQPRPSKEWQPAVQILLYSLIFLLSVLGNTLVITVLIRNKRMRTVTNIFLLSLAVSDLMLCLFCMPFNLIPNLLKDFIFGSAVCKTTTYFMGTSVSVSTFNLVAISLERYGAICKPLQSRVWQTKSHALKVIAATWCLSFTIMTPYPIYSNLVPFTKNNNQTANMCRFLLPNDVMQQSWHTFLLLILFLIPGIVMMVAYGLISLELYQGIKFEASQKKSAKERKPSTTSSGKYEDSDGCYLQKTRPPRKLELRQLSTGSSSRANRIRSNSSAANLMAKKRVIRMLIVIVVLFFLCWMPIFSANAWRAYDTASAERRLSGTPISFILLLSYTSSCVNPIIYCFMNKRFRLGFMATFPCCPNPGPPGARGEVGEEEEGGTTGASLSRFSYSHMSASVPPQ

[2] = DRUGMATRIX: Potassium Channel [KATP] radioligand binding (ligand: [3H] Glyburide); type: cell membranes, Membrane; conditions: hit-t15; Not Active = under 50% inhibition at 10 µM
Cathepsin G = target: T2, Cathepsin G (Homo sapiens, UniProt P08311); type: tissue-based; conditions: neutrophil;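 also: inhibition of Cathepsin G enzyme activity, tested on an AMC-conjugated peptide substrate; in other assays of this panel Not Active means under 50% inhibition at 10 µM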
T2 sequence (P08311 whole entry): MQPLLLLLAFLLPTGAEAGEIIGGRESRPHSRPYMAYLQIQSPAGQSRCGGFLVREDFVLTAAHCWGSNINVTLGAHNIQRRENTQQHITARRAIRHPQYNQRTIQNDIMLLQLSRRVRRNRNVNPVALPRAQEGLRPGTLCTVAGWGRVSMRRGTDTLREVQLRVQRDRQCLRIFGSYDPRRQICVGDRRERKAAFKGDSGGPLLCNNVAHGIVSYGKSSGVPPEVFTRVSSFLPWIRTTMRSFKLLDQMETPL

[3] = target: Matrix metalloproteinase-9 (Homo sapiens, UniProt P14780); type: cell-based;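 also: inhibition of isolated MMP-9 enzyme activity toward a synthetic peptide substrate, from the DrugMatrix protease screening panel; in other assays of this panel Not Active means under 50% inhibition at 10 µM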
Chain of Matrix metalloproteinase-9 (P14780 whole entry): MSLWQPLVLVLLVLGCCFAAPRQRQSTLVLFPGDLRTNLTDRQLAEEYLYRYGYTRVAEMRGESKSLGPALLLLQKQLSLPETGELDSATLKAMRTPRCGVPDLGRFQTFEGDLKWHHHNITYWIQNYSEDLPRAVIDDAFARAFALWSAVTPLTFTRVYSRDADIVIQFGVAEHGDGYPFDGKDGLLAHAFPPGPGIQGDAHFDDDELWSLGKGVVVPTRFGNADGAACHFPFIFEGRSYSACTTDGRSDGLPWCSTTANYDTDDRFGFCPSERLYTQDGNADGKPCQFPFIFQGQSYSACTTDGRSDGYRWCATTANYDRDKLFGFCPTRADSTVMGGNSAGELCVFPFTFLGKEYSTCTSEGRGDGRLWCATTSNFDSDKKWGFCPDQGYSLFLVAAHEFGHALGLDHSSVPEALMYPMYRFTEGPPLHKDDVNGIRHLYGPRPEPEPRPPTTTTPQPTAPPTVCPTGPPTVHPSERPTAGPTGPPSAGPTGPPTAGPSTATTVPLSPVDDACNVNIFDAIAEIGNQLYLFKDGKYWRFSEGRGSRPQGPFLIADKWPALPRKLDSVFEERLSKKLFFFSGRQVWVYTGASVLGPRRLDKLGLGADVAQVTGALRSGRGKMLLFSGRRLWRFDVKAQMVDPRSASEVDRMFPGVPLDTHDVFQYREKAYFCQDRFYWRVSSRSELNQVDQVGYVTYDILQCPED

D(4) dopamine receptor = target: T3, D(4) dopamine receptor (Homo sapiens, UniProt P21917); assay: DRUGMATRIX: Dopamine D4.2 radioligand binding (ligand: [3H] Spiperone); type: cell membranes, CHO-K1, Membrane; conditions: Not Active = under 50% inhibition at 10 µM
T3 sequence (P21917 whole entry): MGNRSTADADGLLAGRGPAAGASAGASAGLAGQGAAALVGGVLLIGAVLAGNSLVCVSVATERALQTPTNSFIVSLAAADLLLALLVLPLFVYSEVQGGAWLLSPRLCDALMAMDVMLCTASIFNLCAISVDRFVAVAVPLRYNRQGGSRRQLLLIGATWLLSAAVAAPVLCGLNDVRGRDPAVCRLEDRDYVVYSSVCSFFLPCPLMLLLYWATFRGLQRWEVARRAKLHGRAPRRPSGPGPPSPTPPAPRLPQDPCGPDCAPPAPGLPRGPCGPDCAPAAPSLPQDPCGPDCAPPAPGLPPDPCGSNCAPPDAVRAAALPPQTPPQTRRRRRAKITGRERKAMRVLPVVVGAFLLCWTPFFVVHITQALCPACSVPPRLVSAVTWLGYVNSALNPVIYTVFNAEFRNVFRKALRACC

[4] = target: T4, Receptor-type tyrosine-protein phosphatase C (Homo sapiens, UniProt P08575); design: species or system Escherichia coli;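 also: inhibition of CD45 enzyme activity measured using DiFMUP as substrate; in other assays of this panel Not Active means under 50% inhibition at 10 µM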
T4 sequence (P08575 whole entry): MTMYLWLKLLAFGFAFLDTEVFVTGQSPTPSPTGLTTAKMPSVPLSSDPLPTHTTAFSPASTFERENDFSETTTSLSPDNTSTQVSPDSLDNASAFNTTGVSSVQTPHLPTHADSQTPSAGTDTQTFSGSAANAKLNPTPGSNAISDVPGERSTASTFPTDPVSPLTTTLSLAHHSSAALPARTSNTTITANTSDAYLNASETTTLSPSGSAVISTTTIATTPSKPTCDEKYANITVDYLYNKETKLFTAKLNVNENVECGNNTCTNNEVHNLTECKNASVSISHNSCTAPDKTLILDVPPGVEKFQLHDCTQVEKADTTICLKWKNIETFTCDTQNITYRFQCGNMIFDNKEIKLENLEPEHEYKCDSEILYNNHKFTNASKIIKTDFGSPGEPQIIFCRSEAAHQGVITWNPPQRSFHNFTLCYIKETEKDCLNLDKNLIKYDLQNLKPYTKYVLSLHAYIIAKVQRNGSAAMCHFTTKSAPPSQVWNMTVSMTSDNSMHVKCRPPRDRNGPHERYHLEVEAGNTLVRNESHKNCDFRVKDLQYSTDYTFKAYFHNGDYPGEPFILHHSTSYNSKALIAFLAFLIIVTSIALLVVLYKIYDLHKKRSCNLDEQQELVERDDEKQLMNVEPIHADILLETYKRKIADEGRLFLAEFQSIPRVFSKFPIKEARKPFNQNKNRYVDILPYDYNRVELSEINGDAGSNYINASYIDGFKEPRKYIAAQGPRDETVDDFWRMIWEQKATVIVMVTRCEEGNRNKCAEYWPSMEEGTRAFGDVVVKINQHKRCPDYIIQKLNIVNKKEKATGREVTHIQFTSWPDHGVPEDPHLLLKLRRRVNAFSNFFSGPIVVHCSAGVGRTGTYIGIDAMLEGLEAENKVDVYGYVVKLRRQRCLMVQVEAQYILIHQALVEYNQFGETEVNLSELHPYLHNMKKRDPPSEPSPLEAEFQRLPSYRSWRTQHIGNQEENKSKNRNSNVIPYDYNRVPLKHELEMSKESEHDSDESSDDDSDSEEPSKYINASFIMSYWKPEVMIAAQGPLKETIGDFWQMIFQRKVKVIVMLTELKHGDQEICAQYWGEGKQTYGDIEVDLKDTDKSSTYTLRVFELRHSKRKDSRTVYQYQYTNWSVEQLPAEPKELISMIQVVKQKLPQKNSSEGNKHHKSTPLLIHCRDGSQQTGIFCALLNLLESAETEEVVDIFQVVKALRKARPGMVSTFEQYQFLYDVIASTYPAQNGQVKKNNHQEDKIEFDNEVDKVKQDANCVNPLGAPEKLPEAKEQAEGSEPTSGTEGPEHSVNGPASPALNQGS

Histamine H2 receptor = Histamine H2 receptor (Homo sapiens, UniProt P25021); type: cell membranes, CHO-K1, Membrane; also: in other assays of this panel Not Active means under 50% inhibition at 10 µM
Chain of Histamine H2 receptor (P25021 whole entry): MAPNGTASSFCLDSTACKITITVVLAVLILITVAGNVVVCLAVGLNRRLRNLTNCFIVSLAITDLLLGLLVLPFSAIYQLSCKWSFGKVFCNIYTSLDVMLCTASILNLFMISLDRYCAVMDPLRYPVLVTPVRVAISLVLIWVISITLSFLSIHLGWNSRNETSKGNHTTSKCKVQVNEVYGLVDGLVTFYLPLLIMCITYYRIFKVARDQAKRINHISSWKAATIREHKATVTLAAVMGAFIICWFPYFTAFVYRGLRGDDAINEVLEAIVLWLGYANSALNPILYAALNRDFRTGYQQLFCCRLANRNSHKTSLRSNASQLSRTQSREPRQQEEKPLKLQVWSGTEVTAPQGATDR

Molecule | IC50 [1] | Ki [1] | IC50 [2] | Ki [2] | IC50 (Cathepsin G) | Ki (Cathepsin G) | IC50 [3] | Ki [3] | IC50 (D(4) dopamine receptor; cho-k1) | Ki (D(4) dopamine receptor; cho-k1) | IC50 [4] | Ki [4] | IC50 (Histamine H2 receptor; cho-k1) | Ki (Histamine H2 receptor; cho-k1) | IC50 (Histamine H2 receptor; read-out: IC50) [µM] | Ki (Histamine H2 receptor; read-out: Ki) [µM] | IC50 (D(4) dopamine receptor; read-out: IC50) [µM] | Ki (D(4) dopamine receptor; read-out: Ki) [µM]
O=[N+]([O-])c1cc([As](=O)(O)O)ccc1O [ROXARSONE] | Not Active | Not Active | Not Active | Not Active | Not Active | Not Active | Not Active | Not Active | Not Active | Not Active | Not Active | Not Active | Not Active | Not Active | – | – | – | –
CC1CN(c2cc3c(cc2F)c(=O)c(C(=O)O)cn3-c2ccc(F)cc2F)CCN1 (stereo not drawn) [TEMAFLOXACIN] | Not Active | – | Not Active | Not Active | Not Active | – | Not Active | – | Not Active | – | Not Active | – | Not Active | – | – | – | – | –
COc1ccc(CCN2CCC(Nc3nc4ccccc4n3Cc3ccc(F)cc3)CC2)cc1 [ASTEMIZOLE] | Not Active | – | – | – | Not Active | – | Not Active | – | – | – | Not Active | – | – | – | – | – | – | –
CC1(C)[C@H]2CC[C@]1(C)C(=O)C2 [(-)-CAMPHOR] | Not Active | – | Not Active | Not Active | Not Active | – | Not Active | – | Not Active | – | Not Active | – | Not Active | – | – | – | – | –
CC(CCc1ccccc1)NCC(O)c1ccc(O)c(C(N)=O)c1 (stereo not drawn) [LABETALOL] | Not Active | – | Not Active | Not Active | Not Active | – | Not Active | – | Not Active | – | Not Active | – | Not Active | – | – | – | – | –
CN1[C@@H]2CC[C@H]1C[C@@H](OC(=O)c1c[nH]c3ccccc13)C2 [TROPISETRON] | Not Active | – | Not Active | Not Active | Not Active | – | Not Active | – | Not Active | – | Not Active | – | Not Active | – | – | – | – | –
NC(=O)c1ncn([C@@H]2O[C@H](CO)[C@@H](O)[C@H]2O)n1 [RIBAVIRIN] | Not Active | – | Not Active | Not Active | Not Active | – | Not Active | – | Not Active | – | Not Active | – | Not Active | – | – | – | – | –
O=C(CCCN1CCC(O)(c2ccc(Cl)cc2)CC1)c1ccc(F)cc1 [HALOPERIDOL] | Not Active | – | – | – | Not Active | – | Not Active | – | – | – | Not Active | – | – | – | – | – | – | –
CN(C)CCCN1c2ccccc2CCc2ccc(Cl)cc21 [CLOMIPRAMINE] | Not Active | – | – | – | Not Active | – | Not Active | – | Not Active | – | Not Active | – | – | – | 2.05 | 2.02 | – | –
IVERMECTIN | Not Active | Not Active | Not Active | Not Active | Not Active | Not Active | Not Active | Not Active | Not Active | Not Active | Not Active | Not Active | Not Active | Not Active | – | – | – | –
CO[C@@H]1[C@@H](O[C@@H]2O[C@H](C)[C@@H](O[C@H]3C[C@@](C)(O)[C@@H](OC(=O)CC(C)C)[C@H](C)O3)[C@H](N(C)C)[C@H]2O)[C@@H](CC=O)C[C@@H](C)[C@@H](O)/C=C/C=C/C[C@@H](C)OC(=O)C[C@H]1O [KITASAMYCIN] | Not Active | – | Not Active | Not Active | Not Active | – | Not Active | – | Not Active | – | Not Active | – | Not Active | – | – | – | – | –
CN1CCN2c3ccccc3Cc3ccccc3C2C1 (stereo not drawn) [MIANSERIN] | Not Active | – | – | – | Not Active | – | Not Active | – | Not Active | – | Not Active | – | – | – | – | – | – | –
CSc1ccc2c(c1)N(CCC1CCCCN1C)c1ccccc1S2 (stereo not drawn) [THIORIDAZINE] | Not Active | – | – | – | Not Active | – | Not Active | – | – | – | Not Active | – | – | – | – | – | 1.47 | 0.515
Clc1ccccc1C(c1ccccc1)(c1ccccc1)n1ccnc1 [CLOTRIMAZOLE] | Not Active | – | – | – | Not Active | – | Not Active | – | – | – | Not Active | – | – | – | 5.17 | 5.08 | 19.9 | 6.99
CC(C)(O)c1ccccc1CC[C@@H](SCC1(CC(=O)O)CC1)c1cccc(/C=C/c2ccc3ccc(Cl)cc3n2)c1 [MONTELUKAST] | Not Active | – | – | – | Not Active | – | Not Active | – | Not Active | – | Not Active | – | Not Active | – | – | – | – | –
NCCCC[C@H](N[C@@H](CCc1ccccc1)C(=O)O)C(=O)N1CCC[C@H]1C(=O)O [LISINOPRIL ANHYDROUS] | Not Active | – | – | – | Not Active | – | Not Active | – | Not Active | – | Not Active | – | Not Active | – | – | – | – | –
COc1cccc(C2(O)CCCCC2CN(C)C)c1 (stereo not drawn) [TRAMADOL] | Not Active | – | – | – | Not Active | – | Not Active | – | Not Active | – | Not Active | – | Not Active | – | – | – | – | –
